Test results: US6830894B1, “Compounds and methods for modulating claudin-mediated functions” (Adherex Technologies, Inc., priority 1998, dated 2004)

System: MDCK cell monolayers
Assay: Electrical resistance across MDCK cell monolayer
Assay type: cell-based, canine
Method: Yet another assay evaluates the effect of a modulating agent on the electrical resistance across a monolayer of cells. For example, Madin Darby canine kidney (MDCK) cells can be exposed to the modulating agent dissolved in medium (e.g., at a final concentration of 0.5 mg/ml for a period of 24 hours). The effect on electrical resistance can be measured using standard techniques. This assay evaluates the effect of a modulating agent on tight junction formation in epithelial cells. In general, the presence of 500 μg/mL modulating agent should result in a statistically significant decrease in electrical resistance after 24 hours.
Madin Darby canine kidney (MDCK) cells were plated in Millicells (Millipore, Bedford, Mass.), at a density of 300,000 cells per Millicell, and cultured in Dulbecco's Modified Eagle Medium (DMEM; Sigma, St. Louis, Mo.) containing 5% fetal calf serum (Sigma, St. Louis, Mo.) until monolayers formed. Monolayers were exposed to the modulating agent dissolved in medium. The electrical resistance was measured using the EVOM device (World Precision Instruments, Sarasota, Fla.). At the time of measurement, fresh medium, with or without the modulating agent, may be added to the Millicells.

[1] = cultured for 18 hours, peptide at 0.5 mg/ml, relative to medium alone (Control), FIG. 3

Substance | mean electrical resistance across MDCK cell monolayers [1] | mean electrical resistance across MDCK cell monolayers (cultured for 24 hours, peptide at various concentrations, versus medium alone (Control), FIG. 4)
H-WKIYSYAGDN-NH2 [Peptide 119] | did not change the electrical resistance across the monolayer relative to the control | –
N—Ac-WKIYSYAGDN-NH2 [Peptide 118] | reduced the electrical resistance across the monolayer | reduced the electrical resistance across the monolayer in a dose dependent manner
